Results taken from ChEMBL document CHEMBL4270599, “Synthesis of a 3'-C-ethynyl-β-d-ribofuranose purine nucleoside library: Discovery of C7-deazapurine analogs as potent antiproliferative nucleosides” (Eur J Med Chem, 2018).

Legend:
SR [1] = assay: Cytotoxicity against human SR cells after 48 hrs by SRB assay; assay type: functional
NCI-H522 [2] = assay: Cytotoxicity against human NCI-H522 cells after 48 hrs by SRB assay; assay type: functional; details: NCI-H522, 48 h
SNB-75 = assay: Cytotoxicity against human SNB75 cells after 48 hrs by SRB assay; assay type: functional; details: SNB-75, 48 h
Malme-3M [3] = assay: Cytotoxicity against human MALME-3M cells after 48 hrs by SRB assay; assay type: functional
SK-MEL-2 = assay: Cytotoxicity against human SK-MEL-2 cells after 48 hrs by SRB assay; assay type: functional; details: SK-MEL-2, 48 h
NCI/ADR-RES = assay: Cytotoxicity against human NCI-ADR-RES cells after 48 hrs by SRB assay; assay type: functional
SR [4] = assay: Growth inhibition of human SR cells assessed as cell growth at 10^-8 M incubated for 48 hrs by sulforhodamine B assay relative to control; assay type: functional; details: read-out: Activity
NCI-H322M = assay: Growth inhibition of human NCI-H322M cells assessed as cell growth at 10^-8 M incubated for 48 hrs by sulforhodamine B assay relative to control; assay type: functional; details: read-out: Activity
IGROV-1 [5] = assay: Growth inhibition of human IGROV1 cells assessed as cell growth at 10^-8 M incubated for 48 hrs by sulforhodamine B assay relative to control; assay type: functional; details: IGROV-1, 48 h, read-out: Activity
OVCAR-4 [6] = assay: Growth inhibition of human OVCAR4 cells assessed as cell growth at 10^-8 M incubated for 48 hrs by sulforhodamine B assay relative to control; assay type: functional; details: OVCAR-4, 48 h, read-out: Activity
OVCAR-8 = assay: Growth inhibition of human OVCAR8 cells assessed as cell growth at 10^-8 M incubated for 48 hrs by sulforhodamine B assay relative to control; assay type: functional; details: OVCAR-8, 48 h, read-out: Activity
A498 [7] = assay: Growth inhibition of human A498 cells assessed as cell growth at 10^-8 M incubated for 48 hrs by sulforhodamine B assay relative to control; assay type: functional; details: A498, 48 h, read-out: Activity
UO-31 = assay: Growth inhibition of human UO31 cells assessed as cell growth at 10^-8 M incubated for 48 hrs by sulforhodamine B assay relative to control; assay type: functional; details: UO-31, 48 h, read-out: Activity
NCI-H522 [8] = assay: Growth inhibition of human NCI-H522 cells assessed as cell growth at 10^-7 M incubated for 48 hrs by sulforhodamine B assay relative to control; assay type: functional; details: NCI-H522, 48 h, read-out: Activity
SF-268 = assay: Growth inhibition of human SF268 cells assessed as cell growth at 10^-7 M incubated for 48 hrs by sulforhodamine B assay relative to control; assay type: functional; details: SF-268, 48 h, read-out: Activity
A498 [9] = assay: Growth inhibition of human A498 cells assessed as cell growth at 10^-7 M incubated for 48 hrs by sulforhodamine B assay relative to control; assay type: functional; details: A498, 48 h, read-out: Activity
PC-3 = assay: Growth inhibition of human PC3 cells assessed as cell growth at 10^-7 M incubated for 48 hrs by sulforhodamine B assay relative to control; assay type: functional; details: PC-3, 48 h, read-out: Activity
BT-549 [10] = assay: Growth inhibition of human BT549 cells assessed as cell growth at 10^-7 M incubated for 48 hrs by sulforhodamine B assay relative to control; assay type: functional; details: BT-549, 48 h, read-out: Activity
MDA-MB-468 = assay: Growth inhibition of human MDA-MB-468 cells assessed as cell growth at 10^-7 M incubated for 48 hrs by sulforhodamine B assay relative to control; assay type: functional; details: MDA-MB-468, 48 h, read-out: Activity
CCRF-CEM [11] = assay: Growth inhibition of human CCRF-CEM cells assessed as cell growth at 10^-6 M incubated for 48 hrs by sulforhodamine B assay relative to control; assay type: functional; details: read-out: Activity
NCI-H460 = assay: Growth inhibition of human NCI-H460 cells assessed as cell growth at 10^-6 M incubated for 48 hrs by sulforhodamine B assay relative to control; assay type: functional; details: NCI-H460, 48 h, read-out: Activity
HCT-116 [12] = assay: Growth inhibition of human HCT116 cells assessed as cell growth at 10^-6 M incubated for 48 hrs by sulforhodamine B assay relative to control; assay type: functional; details: HCT-116, 48 h, read-out: Activity
Malme-3M [13] = assay: Growth inhibition of human MALME-3M cells assessed as cell growth at 10^-6 M incubated for 48 hrs by sulforhodamine B assay relative to control; assay type: functional; details: read-out: Activity
CCRF-CEM [14] = assay: Growth inhibition of human CCRF-CEM cells assessed as cell growth at 10^-5 M incubated for 48 hrs by sulforhodamine B assay relative to control; assay type: functional; details: read-out: Activity
NCI-H226 = assay: Growth inhibition of human NCI-H226 cells assessed as cell growth at 10^-5 M incubated for 48 hrs by sulforhodamine B assay relative to control; assay type: functional; details: NCI-H226, 48 h, read-out: Activity
NCI-H23 = assay: Growth inhibition of human NCI-H23 cells assessed as cell growth at 10^-5 M incubated for 48 hrs by sulforhodamine B assay relative to control; assay type: functional; details: NCI-H23, 48 h, read-out: Activity
OVCAR-4 [15] = assay: Growth inhibition of human OVCAR4 cells assessed as cell growth at 10^-5 M incubated for 48 hrs by sulforhodamine B assay relative to control; assay type: functional; details: OVCAR-4, 48 h, read-out: Activity
DU-145 = assay: Growth inhibition of human DU145 cells assessed as cell growth at 10^-5 M incubated for 48 hrs by sulforhodamine B assay relative to control; assay type: functional; details: DU-145, 48 h, read-out: Activity
MCF7 = assay: Growth inhibition of human MCF7 cells assessed as cell growth at 10^-5 M incubated for 48 hrs by sulforhodamine B assay relative to control; assay type: functional; details: MCF7, 48 h, read-out: Activity
BT-549 [16] = assay: Growth inhibition of human BT549 cells assessed as cell growth at 10^-5 M incubated for 48 hrs by sulforhodamine B assay relative to control; assay type: functional; details: BT-549, 48 h, read-out: Activity
CCRF-CEM [17] = assay: Growth inhibition of human CCRF-CEM cells assessed as cell growth at 10^-4 M incubated for 48 hrs by sulforhodamine B assay relative to control; assay type: functional; details: read-out: Activity
HCT-116 [18] = assay: Growth inhibition of human HCT116 cells assessed as cell growth at 10^-4 M incubated for 48 hrs by sulforhodamine B assay relative to control; assay type: functional; details: HCT-116, 48 h, read-out: Activity
IGROV-1 [19] = assay: Growth inhibition of human IGROV1 cells assessed as cell growth at 10^-4 M incubated for 48 hrs by sulforhodamine B assay relative to control; assay type: functional; details: IGROV-1, 48 h, read-out: Activity
[20] = Antiproliferative activity against HELF cells after 4 days by Coulter counter method; assay type: cell-based; details: Homo sapiens, 96 h
[21] = read-out: LC50 (the source's name)
[22] = read-out: pLC50 (the source's name) (converted)

SMILES: C#C[C@@]1(O)[C@@H](CO)O[C@@H](n2cc(F)c3c(N)ncnc32)[C@@H]1O
- CC50 (SR [1]; [21]): > 100 µM
- TGI (SR [1]; read-out: TGI): > 100 µM
- GI50 (SR [1]; read-out: pGI50 (converted)): 0.186 µM
- TGI (SR [1]; read-out: pTGI): > 100 µM
- GI50 (NCI-H522 [2]; read-out: GI50): 0.18 µM
- CC50 (NCI-H522 [2]; [21]): > 100 µM
- TGI (NCI-H522 [2]; read-out: TGI): 0.929 µM
- GI50 (NCI-H522 [2]; read-out: pGI50 (converted)): 0.178 µM
- TGI (NCI-H522 [2]; read-out: pTGI (converted)): 0.933 µM
- TGI (SNB-75; read-out: TGI): 2.32 µM
- GI50 (SNB-75; read-out: pGI50 (converted)): 1.02 µM
- CC50 (SNB-75; [22]): 5.25 µM
- TGI (SNB-75; read-out: pTGI (converted)): 2.34 µM
- TGI (Malme-3M [3]; read-out: TGI): 1.81 µM
- GI50 (Malme-3M [3]; read-out: pGI50 (converted)): 0.363 µM
- CC50 (Malme-3M [3]; [22]): > 100 µM
- TGI (Malme-3M [3]; read-out: pTGI (converted)): 1.82 µM
- CC50 (SK-MEL-2; [21]): > 100 µM
- TGI (SK-MEL-2; read-out: TGI): 2.87 µM
- GI50 (SK-MEL-2; read-out: pGI50 (converted)): 0.447 µM
- TGI (SK-MEL-2; read-out: pTGI (converted)): 2.88 µM
- TGI (NCI/ADR-RES; read-out: TGI): 11.3 µM
- GI50 (NCI/ADR-RES; read-out: pGI50 (converted)): 0.309 µM
- CC50 (NCI/ADR-RES; [22]): > 100 µM
- TGI (NCI/ADR-RES; read-out: pTGI (converted)): 11.2 µM
- growth at 0.01 µM (SR [4]): 101%
- growth at 0.01 µM (NCI-H322M): 93%
- growth at 0.01 µM (IGROV-1 [5]): 105%
- growth at 0.01 µM (OVCAR-4 [6]): 100%
- growth at 0.01 µM (OVCAR-8): 96%
- growth at 0.01 µM (A498 [7]): 86%
- growth at 0.01 µM (UO-31): 94%
- growth at 0.1 µM (NCI-H522 [8]): 68%
- growth at 0.1 µM (SF-268): 105%
- growth at 0.1 µM (A498 [9]): 95%
- growth at 0.1 µM (PC-3): 84%
- growth at 0.1 µM (BT-549 [10]): 107%
- growth at 0.1 µM (MDA-MB-468): 84%
- growth at 1 µM (CCRF-CEM [11]): 23%
- growth at 1 µM (NCI-H460): 5%
- growth at 1 µM (HCT-116 [12]): 4%
- growth at 1 µM (Malme-3M [13]): 12%
- growth at 10 µM (CCRF-CEM [14]): 5%
- growth at 10 µM (NCI-H226): -44%
- growth at 10 µM (NCI-H23): -4%
- growth at 10 µM (OVCAR-4 [15]): -3%
- growth at 10 µM (DU-145): 1%
- growth at 10 µM (MCF7): 1%
- growth at 10 µM (BT-549 [16]): -28%
- growth at 100 µM (CCRF-CEM [17]): 1%
- growth at 100 µM (HCT-116 [18]): 1%
- growth at 100 µM (IGROV-1 [19]): -38%
- IC50 [20]: 0.076 µM
